Experimental data as given in patent US8178506B2, “Oligomeric compounds and compositions for use in modulation of small non-coding RNAs” (Regulus Therapeutics Inc., priority 2003, dated 2012).
In the oligonucleotide strings, read from the 5' end, every base follows the letter of its sugar. An asterisk marks phosphorothioate; unmarked linkages are phosphodiester. Other units and linkages are bracketed, terminal groups are in braces. A string of capitals states the bases alone. e = 2'-O-(2-methoxyethyl) (MOE); [5mC] = 5-methylcytosine; d = 2'-deoxy (DNA)

These substances were tested on T47D cells (assay: Caspase-3 activity assay (apoptosis) in T47D cells). Conditions: T47D cells, 200 nM oligomeric compound, 48 hours; experiment of Table 10.

Row | Substance | Fold Increase over UTC (caspase-3 activity, apoptosis) [fold]
1 | 328696 (e[5mC]*eT*e[5mC]*eT*eA*dG*d[5mC]*dT*d[5mC]*d[5mC]*d[5mC]*dT*d[5mC]*dA*d[5mC]*e[5mC]*eA*eG*eT*eG; antisense) [compound 328696] | 1.5
2 | 328398 (antisense eG*e[5mC]*e[5mC]*eA*eT*dT*dG*dG*dG*dA*d[5mC]*d[5mC]*dT*dG*d[5mC]*eA*e[5mC]*eA*eG*e[5mC]) [compound 328398] | 0.9
3 | 328700 (eA*eG*e[5mC]*e[5mC]*eA*dG*dT*dG*dT*dG*dT*dA*dA*dA*dA*eT*eG*eA*eG*eA; antisense) [compound 328700] | 0.8
4 | 328399 (antisense eA*eT*eG*eG*eG*dT*dA*d[5mC]*d[5mC]*dA*d[5mC]*d[5mC]*dA*dG*dA*eA*e[5mC]*eA*eT*eG) [compound 328399] | 1.0
5 | 328652 (eG*eG*e[5mC]*e[5mC]*eT*dA*dA*dT*dA*dT*d[5mC]*d[5mC]*d[5mC]*dT*dA*e[5mC]*e[5mC]*e[5mC]*e[5mC]*eA; antisense) [compound 328652] | 1.2
6 | 328375 (eT*eA*e[5mC]*e[5mC]*eA*dT*dA*d[5mC]*dA*dG*dA*dA*dA*d[5mC]*dA*e[5mC]*eA*eG*e[5mC]*eA; antisense) [compound 328375] | 0.9
7 | 328409 (antisense eG*e[5mC]*eT*eA*eG*dT*dG*dA*d[5mC]*dA*dG*dG*dT*dG*d[5mC]*eA*eG*eA*e[5mC]*eA) [compound 328409] | 0.7
8 | 328408 (antisense eT*eA*eG*eA*e[5mC]*dA*dA*dA*dA*dA*d[5mC]*dA*dG*dA*d[5mC]*eT*e[5mC]*eT*eG*eA) [compound 328408] | 0.9
9 | 328646 (eG*e[5mC]*eT*eT*eT*dT*dA*dG*dA*dA*d[5mC]*d[5mC]*dA*d[5mC]*dT*eG*e[5mC]*e[5mC]*eT*e[5mC]; antisense) [compound 328646] | 1.1

Same assay, conditions: T47D cells, 200 nM oligomeric compound, 48 hours; experiment of Table 11

Row | Substance | Fold Increase over UTC (caspase-3 activity, apoptosis) [fold]
10 | 328406 (antisense eA*eG*e[5mC]*eA*eA*dG*dT*d[5mC]*dT*dA*d[5mC]*dT*d[5mC]*d[5mC]*dT*e[5mC]*eA*eG*eG*eG) [compound 328406] | 1.0
11 | 328639 (eG*eA*e[5mC]*eT*eA*d[5mC]*dT*dG*dT*dT*dG*dA*dG*dA*dG*eG*eA*eA*e[5mC]*eA; antisense) [compound 328639] | 0.8
12 | 328407 (antisense eA*eA*eT*eG*eG*dA*dG*d[5mC]*d[5mC]*dA*dA*dG*dG*dT*dG*e[5mC]*eT*eG*e[5mC]*e[5mC]) [compound 328407] | 1.2
13 | 328410 (antisense eG*eG*eG*e[5mC]*e[5mC]*dT*dA*dT*d[5mC]*d[5mC]*dA*dA*dA*dG*dT*eG*eA*e[5mC]*eA*eG) [compound 328410] | 1.5
14 | 328390 (eG*eG*eA*eG*e[5mC]*d[5mC]*dT*dT*dG*d[5mC]*dG*d[5mC]*dT*d[5mC]*dA*eG*e[5mC]*eA*eT*eT; antisense) [compound 328390] | 0.9
15 | 328653 (eG*eT*eG*eT*eT*d[5mC]*dA*dG*dA*dA*dA*d[5mC]*d[5mC]*d[5mC]*dA*eG*eG*e[5mC]*e[5mC]*e[5mC]; antisense) [compound 328653] | 1.1
16 | 328435 (antisense eT*e[5mC]*eT*eA*eA*dG*dG*dG*dG*dT*d[5mC]*dA*d[5mC]*dA*dG*eA*eA*eG*eG*eT) [compound 328435] | 1.3
17 | 328386 (eA*e[5mC]*e[5mC]*eT*eG*dT*dG*dT*dA*dA*d[5mC]*dA*dG*d[5mC]*d[5mC]*eG*eT*eG*eT*eA; antisense) [compound 328386] | 0.7

Same assay, conditions: T47D cells, 200 nM oligomeric compound, 48 hours; experiment of Table 12

Row | Substance | Fold Increase over UTC (caspase-3 activity, apoptosis) [fold]
18 | 328642 (eA*e[5mC]*eT*e[5mC]*e[5mC]*d[5mC]*dA*dG*dG*dG*dT*dG*dT*dA*dA*e[5mC]*eT*e[5mC]*eT*eA; antisense) [compound 328642] | 1.0
19 | 328401 (antisense eG*e[5mC]*e[5mC]*e[5mC]*eT*d[5mC]*dG*dA*d[5mC]*dG*dA*dA*dA*dA*d[5mC]*e[5mC]*eG*eA*e[5mC]*eT) [compound 328401] | 0.8
20 | 328640 (eT*e[5mC]*eT*e[5mC]*e[5mC]*dT*dT*dG*dG*dG*dT*dG*dT*d[5mC]*d[5mC]*eT*e[5mC]*e[5mC]*eT*e[5mC]; antisense) [compound 328640] | 0.9

Same assay, conditions: T47D cells, 200 nM, 48 hours, relative to untreated control

Row | Substance | Fold Increase over UTC (caspase activity)
21 | 328643 (e[5mC]*eA*eT*eG*eA*dA*dG*dA*dA*dA*dG*dA*d[5mC]*dT*dG*eT*eA*eG*e[5mC]*e[5mC]; antisense) [compound 328643] | 0.9
22 | 328392 (eG*eA*eT*eT*eG*d[5mC]*dA*d[5mC]*dA*dT*d[5mC]*d[5mC]*dA*d[5mC]*dA*e[5mC]*eT*eG*eT*e[5mC]; antisense) [compound 328392] | 1.0

Same assay, conditions: caspase assay, 200 nM; conclusion from Tables 9-12

Row | Substance | apoptosis in T47D cells
23 | SEQ ID NO 543: gapmer of Tables 9-12 having this SEQ ID NO (e[5mC]*eG*e[5mC]*eA*eT*d[5mC]*dT*dT*dG*dA*d[5mC]*dT*dG*dT*dA*eG*e[5mC]*eA*eT*eG) | prevent or have a protective effect from apoptosis
24 | SEQ ID NO 496: gapmer of Tables 9-12 having this SEQ ID NO (antisense eT*eT*eA*eT*e[5mC]*dG*dG*dA*dA*d[5mC]*dT*dT*d[5mC]*dA*d[5mC]*eA*eG*eA*eG*eA) | induce apoptosis
25 | SEQ ID NO 539: gapmer of Tables 9-12 having this SEQ ID NO (e[5mC]*e[5mC]*eG*eG*e[5mC]*dT*dA*dT*dT*dG*dA*dG*dT*dT*dA*eT*eG*eT*eA*e[5mC]) | induce apoptosis
26 | SEQ ID NO 528: gapmer of Tables 9-12 having this SEQ ID NO (antisense eT*eG*eT*eT*eG*d[5mC]*d[5mC]*dT*dA*dA*d[5mC]*dG*dA*dA*d[5mC]*eA*e[5mC]*eA*eG*eA) | prevent or have a protective effect from apoptosis
27 | CCGAGGGTCTAACCCAGCCC (antisense; same sequence listed as MOE 5-10-5 gapmer and as uniform MOE, further chemistry not given here) [ISIS 328638] | prevent or have a protective effect from apoptosis
28 | GCTTTTAGAACCACTGCCTC (antisense; same sequence listed as MOE 5-10-5 gapmer and as uniform MOE, further chemistry not given here) [ISIS 328646] | induce apoptosis
29 | SEQ ID NO 510: gapmer of Tables 9-12 having this SEQ ID NO (antisense eG*e[5mC]*e[5mC]*e[5mC]*eT*d[5mC]*dG*dA*d[5mC]*dG*dA*dA*dA*dA*d[5mC]*e[5mC]*eG*eA*e[5mC]*eT) | prevent or have a protective effect from apoptosis
30 | CAAACGGTAAGATTTGCAGA (antisense; same sequence listed as MOE 5-10-5 gapmer and as uniform MOE, further chemistry not given here) [ISIS 328694] | prevent or have a protective effect from apoptosis
31 | SEQ ID NO 511: gapmer of Tables 9-12 having this SEQ ID NO (antisense eT*eT*eG*eA*eA*d[5mC]*dT*d[5mC]*d[5mC]*dA*dT*dG*d[5mC]*d[5mC]*dA*e[5mC]*eA*eA*eG*eG) | induce apoptosis
32 | SEQ ID NO 544: gapmer of Tables 9-12 having this SEQ ID NO (eT*e[5mC]*eT*eA*eA*dG*dG*dG*dG*dT*d[5mC]*dA*d[5mC]*dA*dG*eA*eA*eG*eG*eT) | induce apoptosis
33 | GCCTCCTTCATATATTCTCA (antisense; same sequence listed as MOE 5-10-5 gapmer and as uniform MOE, further chemistry not given here) [ISIS 328690] | prevent or have a protective effect from apoptosis
34 | GGCCTAATATCCCTACCCCA (antisense; same sequence listed as MOE 5-10-5 gapmer and as uniform MOE, further chemistry not given here) [ISIS 328652] | induce apoptosis
35 | SEQ ID NO 498: gapmer of Tables 9-12 having this SEQ ID NO (antisense eG*eG*e[5mC]*eA*e[5mC]*dT*dT*d[5mC]*dA*dT*dT*dG*d[5mC]*dT*dG*e[5mC]*eT*eG*e[5mC]*e[5mC]) | induce apoptosis
36 | CTCTAGCTCCCTCACCAGTG (antisense; same sequence listed as MOE 5-10-5 gapmer and as uniform MOE, further chemistry not given here) [ISIS 328696] | induce apoptosis
37 | GTGTTCAGAAACCCAGGCCC (antisense; same sequence listed as MOE 5-10-5 gapmer and as uniform MOE, further chemistry not given here) [ISIS 328653] | induce apoptosis
38 | SEQ ID NO 541: gapmer of Tables 9-12 having this SEQ ID NO (eG*eA*eG*e[5mC]*eA*dT*dG*d[5mC]*dA*dA*d[5mC]*dA*d[5mC]*dT*d[5mC]*eT*eG*eT*eG*e[5mC]) | prevent or have a protective effect from apoptosis
